Experimental data from patent US20210170033A1, “NOVEL CONJUGATES OF A PHARMACEUTICAL AGENT AND A MOIETY CAPABLE OF BINDING TO A GLUCOSE SENSING PROTEIN” (SANOFI, priority 2017, published 2021).
Where two headings read alike, the source gives them in different places.

Columns and labels:
A2780 cells = test: Deoxy-glucose uptake assay in A2780 cells (14C 2-deoxy-D-glucose transport); type: cell-based; settings: Homo sapiens, 20 min; inhibition of 14C 2-deoxy-D-glucose transport into A2780 cells; 20 min compound incubation; read-out: IC50
Procedure, shortened: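 Radiolabelled 2-deoxy-D-glucose transport over 20 min was scintillation-counted in A2780 cells, grown 48 h, after 20 min compound exposure in KRB. Untreated cells gave the 100% reference, with Cytochalasin B defining background. IC50 values were regressed from triplicate means across 7 or 14 concentrations.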

[1] = system: A2780 Human Carcinoma Cells; test: Glucose displacement assay (ATP measurement, CellTiter-Glo); type: cell-based; settings: ATP measurement in A2780 cells, 0.5 μM rotenone
Procedure: 2. Glucose Displacement Assay (ATP Measurement)
30,000 A2780 Human Carcinoma Cells are seeded per well in a Greiner 96-well plate. Cells are expanded and cultured in RPMI 1640 medium+GlutaMAX® with 10% FCS and 11 mM glucose, at 37° C. with 5% CO2. After 44 h, culture media is changed and washed once with PBS to starvation media consisting of RPMI 1640 medium with 1% FCS without glucose for 2 hours. Cells are then washed with KRB buffer, followed by incubation for 20 min at 37° C. of the treatment mix consisting of 60 μL KRB buffer/well and 10 μL of compound or DMSO 10×. 10 μl of rotenone is added to the mix to a final concentration of 0.5 μM. Cell plates are left for 2 min at room temperature. 20 μL of different glucose concentrations are added to the mix—typically 0.1 to 10 mM range—.
Cells are incubated for another 15 min at 37° C., before measuring ATP with the CellTiter-Glo® Assay, under manufacturer's guidance, but without the equilibration step at room temperature for 30 min. In brief, 100 μl of Cell-Titer-Glo® Reagent is added to the wells containing already 100 μl of the previous reaction mix. Plates are mixed for 2 min at 800 rpm, followed by incubation at room temperature for 10 min to stabilize the luminescent signal. Luminescence is then recorded with the Tekan Ultra Evolution reader.

[2] = 1 mM glucose, read-out: IC50 [μM] at 1 mM glucose
[3] = 10 mM glucose, read-out: IC50 [μM] at 10 mM glucose

SMILES	IC50 (A2780 cells) [µM]	IC50 [1, 2] [µM]	IC50 [1, 3] [µM]
COC(=O)[C@H](CCC(=O)Nc1cccc(COc2cc(OC)c(C(=O)O[C@H]3[C@@H](OC)O[C@H](CO)[C@@H](O)[C@@H]3O)cc2Cl)c1)NC(=O)OC(C)(C)C [Example 377]	2.4	1.34	7.83
COc1cc(OCc2cccc(OCCCCCC(=O)O)c2)c(Cl)cc1C(=O)O[C@H]1[C@@H](OC)O[C@H](CO)[C@@H](O)[C@@H]1O [Example 379]	8.3	5.39	24.1
COc1cc(OCc2cccc(NC(=O)CCCC(=O)O)c2)c(Cl)cc1C(=O)O[C@H]1[C@@H](OC)O[C@H](CO)[C@@H](O)[C@@H]1O [Example 407]	8.6	16.3	> 33
COc1cc(OCc2cccc(NC(=O)CCCCCCC(=O)O)c2)c(Cl)cc1C(=O)O[C@H]1[C@@H](OC)O[C@H](CO)[C@@H](O)[C@@H]1O [Example 409]	4.1	7.63	14.5
COC(=O)[C@H](CCCCNC(=O)CCCC(=O)Nc1cccc(COc2cc(OC)c(C(=O)O[C@H]3[C@@H](OC)O[C@H](CO)[C@@H](O)[C@@H]3O)cc2Cl)c1)NC(=O)OC(C)(C)C [Example 412]	2.3	6.02	13.9
COC(=O)[C@H](CCCCNC(=O)CCCCCCC(=O)NCc1cccc(COc2cc(OC)c(C(=O)O[C@H]3[C@@H](OC)O[C@H](CO)[C@@H](O)[C@@H]3O)cc2Cl)c1)NC(=O)OC(C)(C)C [Example 413]	5.1	10.3	30.9
COc1cc(OCc2cccc(CNC(=O)CCC(=O)OC(C)(C)C)c2)c(Cl)cc1C(=O)N[C@H]1[C@@H](OC)O[C@H](CO)[C@@H](O)[C@@H]1O [Example 424]	3.3	9.79	25.4
COc1cc(OCc2cccc(CNC(=O)CCCC(=O)OC(C)(C)C)c2)c(Cl)cc1C(=O)N[C@H]1[C@@H](OC)O[C@H](CO)[C@@H](O)[C@@H]1O [Example 425]	2.5	7.97	14.5
COc1cc(OCc2cccc(CNC(=O)CCCCCCC(=O)OC(C)(C)C)c2)c(Cl)cc1C(=O)N[C@H]1[C@@H](OC)O[C@H](CO)[C@@H](O)[C@@H]1O [Example 426]	2.8	5.56	19.5
COC(=O)[C@H](CCCCNC(=O)CCCCCCC(=O)NCc1cccc(COc2cc(OC)c(C(=O)N[C@H]3[C@@H](OC)O[C@H](CO)[C@@H](O)[C@@H]3O)cc2Cl)c1)NC(=O)OC(C)(C)C [Example 437]	17.6	19.5	> 33
COC(=O)[C@H](CCCCNC(=O)CCCCCCCCC(=O)NCc1cccc(COc2cc(OC)c(C(=O)N[C@H]3[C@@H](OC)O[C@H](CO)[C@@H](O)[C@@H]3O)cc2Cl)c1)NC(=O)OC(C)(C)C [Example 438]	13.8	13	> 33
CO[C@H]1O[C@H](CO)[C@@H](O)[C@H](O)[C@H]1NC(=O)c1cc(Cl)c(OCc2cccc(CNC(=O)OC(C)(C)C)c2)c(Cl)c1C [Example 439]	3.3	2.5	11.5
COC(=O)[C@H](CCCCNC(=O)CCCC(=O)Nc1cccc(COc2cc(OC)c(C(=O)N[C@H]3[C@@H](OC)O[C@H](CO)[C@@H](O)[C@@H]3O)cc2Cl)c1)NC(=O)OC(C)(C)C [Example 440]	7	18	> 33
COC(=O)[C@H](CCCCNC(=O)CCCCCCC(=O)Nc1cccc(COc2cc(OC)c(C(=O)N[C@H]3[C@@H](OC)O[C@H](CO)[C@@H](O)[C@@H]3O)cc2Cl)c1)NC(=O)OC(C)(C)C [Example 441]	2.7	3	11.4
CO[C@H]1O[C@H](CO)[C@@H](O)[C@H](O)[C@H]1NC(=O)c1cc(Cl)c(OCc2cccc(NC(=O)OC(C)(C)C)c2)c(Cl)c1C [Example 443]	6	2	8.9

These reach a lower IC50 (A2780 cells). Values come first.

IC50 (A2780 cells) [µM]	IC50 [1, 2] [µM]	IC50 [1, 3] [µM]	SMILES
1.6	1.41	7.19	COc1cc(OCc2cccc(NC(=O)CCC(=O)OC(C)(C)C)c2)c(Cl)cc1C(=O)O[C@H]1[C@@H](OC)O[C@H](CO)[C@@H](O)[C@@H]1O [Example 375]
0.8	1.02	3.73	COc1cc(OCc2cccc(NC(=O)CCCC(=O)OC(C)(C)C)c2)c(Cl)cc1C(=O)O[C@H]1[C@@H](OC)O[C@H](CO)[C@@H](O)[C@@H]1O [Example 376]
0.6	2.95	7.81	COc1cc(OCc2cccc(CNC(=O)CCCCCCC(=O)OC(C)(C)C)c2)c(Cl)cc1C(=O)O[C@H]1[C@@H](OC)O[C@H](CO)[C@@H](O)[C@@H]1O [Example 401]
0.3	3.24	7.35	COc1cc(OCc2cccc(NC(=O)CCCCCCC(=O)OC(C)(C)C)c2)c(Cl)cc1C(=O)O[C@H]1[C@@H](OC)O[C@H](CO)[C@@H](O)[C@@H]1O [Example 402]
1.1	4.39	11.6	COc1cc(OCc2cccc(CNC(=O)OC(C)(C)C)c2)c(Cl)cc1C(=O)N[C@H]1[C@H](OC)O[C@H](CO)[C@@H](O)[C@@H]1O [Example 419]
1.7	3.9	7.8	COc1cc(OCc2cccc(NC(=O)CCCCCCC(=O)OC(C)(C)C)c2)c(Cl)cc1C(=O)N[C@H]1[C@@H](OC)O[C@H](CO)[C@@H](O)[C@@H]1O [Example 430]
1	1.6	5.2	COC(=O)[C@H](CCCCNC(=O)CCCCCCCCC(=O)Nc1cccc(COc2cc(OC)c(C(=O)N[C@H]3[C@@H](OC)O[C@H](CO)[C@@H](O)[C@@H]3O)cc2Cl)c1)NC(=O)OC(C)(C)C [Example 442]
1.6	4	8.4	COc1c(C(=O)N[C@H]2[C@@H](OC)O[C@H](CO)[C@@H](O)[C@@H]2O)cc(Cl)c(OCc2cccc(CNC(=O)OC(C)(C)C)c2)c1Cl [Example 444]
1.7	2.4	3.3	COc1cc(OCc2nc3ccccc3n2CCCCCCCCCCCC(=O)O)c(Cl)cc1C(=O)N[C@H]1[C@@H](OC)O[C@H](CO)[C@@H](O)[C@@H]1O [Example 469]
0.8	3.4	8.6	COC(=O)[C@H](CCCCNC(=O)CCCCCNC(=O)CCCCCCC(=O)Nc1cccc(COc2cc(OC)c(C(=O)N[C@H]3[C@@H](OC)O[C@H](CO)[C@@H](O)[C@@H]3O)cc2Cl)c1)NC(=O)OC(C)(C)C [Example 471]
1.6	5.9	15.6	COC(=O)[C@@H](CCCCNC(=O)CCCCCNC(=O)CCCCCCCCC(=O)Nc1cccc(COc2cc(OC)c(C(=O)N[C@H]3[C@@H](OC)O[C@H](CO)[C@@H](O)[C@@H]3O)cc2Cl)c1)NC(=O)OC(C)(C)C [Example 472]
